Reference: US20160361330A1 (priority 2014, published 2016)
Values joined by “and” are separate entries in the source; they are usually repeats but may differ in a detail not shown here. Equal entries are not always repeated. Where two headings read alike, the source gives them in different places.

Experiments:
[1] = test system: ebolavirus (EBOV) strain Zaire; assay: organism not typed; assay type: cell-based, Ebola virus; conditions: read-out: EC50 (nM) Antigen expression (high content imaging) Ebola Hela
[2] = test system: EBOV-GFP (Ebola virus expressing the GFP reporter gene); assay: microbe, parasite or virus in culture; assay type: cell-based; conditions: read-out: EC50 (nM) Reporter Virus EBOV-GFP HMVEC-TERT
[3] = test system: ebolavirus (EBOV) strain Zaire; assay: organism not typed; assay type: cell-based, Ebola virus; conditions: read-out: EC50 (nM) Antigen expression (high content imaging) Ebola Macrophage
[4] = test system: EBOV-GFP (Ebola virus expressing the GFP reporter gene); assay: microbe, parasite or virus in culture; assay type: cell-based; conditions: Zaire ebolavirus, Huh-7, read-out: EC50 (nM) Reporter Virus EBOV-GFP Huh-7
Ebola virus (EBOV) [5] = assay: microbe, parasite or virus in culture; assay type: cell-based; conditions: Zaire ebolavirus, Huh-7, read-out: EC50 (nM) Yield Ebola Huh-7
[6] = test system: NiV GFP (Nipah virus expressing the GFP reporter gene); assay: microbe, parasite or virus in culture; assay type: cell-based; conditions: Henipavirus nipahense, read-out: EC50 (nM) Reporter Virus NiV GFP HMVEC-TERT
Ebola virus (EBOV) [7] = assay: microbe, parasite or virus in culture; assay type: cell-based; conditions: Zaire ebolavirus, Huh-7, read-out: EC50 (nM) RNA Ebola Huh-7
[8] = test system: NiV-Luc (Nipah virus expressing the luciferase reporter gene); assay: microbe, parasite or virus in culture; assay type: cell-based; conditions: Henipavirus nipahense, read-out: EC50 (nM) Reporter Virus NiV Luc HMVEC-TERT
NiV (Nipah virus) [9] = assay: microbe, parasite or virus in culture; assay type: cell-based; conditions: Henipavirus nipahense, HeLa, read-out: EC50 (nM) CPE NiV Hela
NiV (Nipah virus) [10] = assay: microbe, parasite or virus in culture; assay type: cell-based; conditions: Henipavirus nipahense, HeLa, read-out: EC50 (nM) Yield NiV Hela
[11] = test system: MARV-GFP (Marburg virus expressing the GFP reporter gene); assay: organism not typed; assay type: cell-based; conditions: Huh-7, read-out: EC50 (nM) Reporter Virus MARV-GFP Huh-7
[12] = test system: EBOV-Luc (Ebola virus expressing the luciferase reporter gene); assay: microbe, parasite or virus in culture; assay type: cell-based; conditions: Zaire ebolavirus, Huh-7, read-out: EC50 (nM) Reporter Virus EVOV-Luc Huh-7

Row | Structure (SMILES) | EC50 ([1]; HeLa) | EC50 ([2]; Zaire ebolavirus) | EC50 ([3]; Macrophage) | other results
1 | C[C@H](NP(=O)(OC[C@H]1O[C@@](C#N)(c2ccc3c(N)ncnn23)[C@H](O)[C@@H]1O)Oc1ccccc1)C(=O)OC1CCCCC1 (stereo partly drawn) [Compound 29, (2S)-cyclohexyl 2-(((((2R,3S,4R,5R)-5-(4-aminopyrrolo[2,1-f][1,2,4]triazin-7-yl)-5-cyano-3,4-dihydroxytetrahydrofuran-2-yl)methoxy)(phenoxy)phosphoryl)amino) propanoate] | 275 nM |  |  | 
2 | C[C@H](NP(=O)(OC[C@H]1O[C@@](C#N)(c2ccc3c(N)ncnn23)[C@H](O)[C@@H]1O)Oc1ccccc1)C(=O)OC1CCCC1 (stereo partly drawn) [Compound 28, (2S)-cyclopentyl 2-(((((2R,3S,4R,5R)-5-(4-aminopyrrolo[2,1-f][1,2,4]triazin-7-yl)-5-cyano-3,4-dihydroxytetrahydrofuran-2-yl)methoxy)(phenoxy)phosphoryl)amino) propanoate] | 975 nM | 102 nM | 120 nM | EC50 [1]: 682 nM
3 | CC(C)OC(=O)[C@H](C)NP(=O)(OC[C@H]1O[C@@](C#N)(c2ccc3c(N)ncnn23)[C@H](O)[C@@H]1O)Oc1ccccc1 (stereo in doubt) [Compound 23, (S)-isopropyl 2-(((R)-(((2R,3S,4R,5R)-5-(4-aminopyrrolo[2,1-f][1,2,4]triazin-7-yl)-5-cyano-3,4-dihydroxytetrahydrofuran-2-yl)methoxy)(phenoxy)phosphoryl)amino)propanoate] | 1650 nM | 458 nM | 243 nM | EC50 [1]: 1840 nM; EC50 [3]: 350 nM and 297 nM
4 | CCOC(=O)[C@H](C)NP(=O)(OC[C@H]1O[C@@](C#N)(c2ccc3c(N)ncnn23)[C@H](O)[C@@H]1O)Oc1ccccc1 (stereo partly drawn) [Compound 10, (2S)-ethyl 2-(((((2R,3S,4R,5R)-5-(4-aminopyrrolo[2,1-f][1,2,4]triazin-7-yl)-5-cyano-3,4-dihydroxytetrahydrofuran-2-yl)methoxy)(phenoxy)phosphoryl)amino)propanoate] | 3200 nM |  |  | 
5 | COC(=O)[C@H](C)N[P@](=O)(OC[C@H]1O[C@@](C#N)(c2ccc3c(N)ncnn23)[C@H](O)[C@@H]1O)Oc1ccccc1 [Compound 26, (S)-methyl 2-(((S)-(((2R,3S,4R,5R)-5-(4-aminopyrrolo[2,1-f][1,2,4]triazin-7-yl)-5-cyano-3,4-dihydroxytetrahydrofuran-2-yl)methoxy)(phenoxy)phosphoryl)amino)propanoate] | 970 nM | 283 nM | 1180 nM | EC50 [1]: 1100 nM; EC50 [3]: 1290 nM
6 | CC(C)OC(=O)C(C)(C)NP(=O)(OC[C@H]1O[C@@](C#N)(c2ccc3c(N)ncnn23)[C@H](O)[C@@H]1O)Oc1ccccc1 (stereo partly drawn) [Compound 31, Isopropyl 2-(((((2R,3S,4R,5R)-5-(4-aminopyrrolo[2,1-f][1,2,4]triazin-7-yl)-5-cyano-3,4-dihydroxytetrahydrofuran-2-yl)methoxy)(phenoxy)phosphoryl)amino)-2-methylpropanoate] | > 20000 nM | 11100 nM | 1230 nM | EC50 [1]: > 10000 nM
7 | CCOC(=O)[C@@H](NP(=O)(OC[C@H]1O[C@@](C#N)(c2ccc3c(N)ncnn23)[C@H](O)[C@@H]1O)Oc1ccccc1)C(C)C (stereo partly drawn) [Compound 22, (2S)-ethyl 2-(((((2R,3S,4R,5R)-5-(4-aminopyrrolo[2,1-f][1,2,4]triazin-7-yl)-5-cyano-3,4-dihydroxytetrahydrofuran-2-yl)methoxy)(phenoxy)phosphoryl)amino)-3-methylbutanoate] | 11600 nM |  |  | 
8 | CCOC(=O)C(C)(C)NP(=O)(OC[C@H]1O[C@@](C#N)(c2ccc3c(N)ncnn23)[C@H](O)[C@@H]1O)Oc1ccccc1 (stereo partly drawn) [Compound 30, ethyl 2-(((((2R,3S,4R,5R)-5-(4-aminopyrrolo[2,1-f][1,2,4]triazin-7-yl)-5-cyano-3,4-dihydroxytetrahydrofuran-2-yl)methoxy)(phenoxy)phosphoryl)amino)-2-methylpropanoate] | > 20000 nM | 11100 nM | 1230 nM | 
9 | CCC(CC)COC(=O)[C@H](C)N[P@@](=O)(OC[C@H]1O[C@@](C#N)(c2ccc3c(N)ncnn23)[C@H](O)[C@@H]1O)Oc1ccccc1 (single isomer, unassigned) [(R)-Diastereomer of Compound 9] | 210 nM | 62 nM | 112 nM | EC50 [4]: 70 nM
10 | CCC(CC)COC(=O)[C@H](C)N[P@](=O)(OC[C@H]1O[C@@](C#N)(c2ccc3c(N)ncnn23)[C@H](O)[C@@H]1O)Oc1ccccc1 (single isomer, unassigned) [(S)-Diastereomer of Compound 9 (Compound 32)] | 100 nM | 40 nM | 87 nM | EC50 [4]: 81 nM
11 | C[C@H](NP(=O)(OC[C@H]1O[C@@](C#N)(c2ccc3c(N)ncnn23)[C@H](O)[C@@H]1O)Oc1ccccc1)C(=O)OC1CCC1 (stereo partly drawn) [Compound 24, (2S)-cyclobutyl 2-(((((2R,3S,4R,5R)-5-(4-aminopyrrolo[2,1-f][1,2,4]triazin-7-yl)-5-cyano-3,4-dihydroxytetrahydrofuran-2-yl)methoxy)(phenoxy)phosphoryl)amino)propanoate] | 785 nM |  |  | 
12 | CCC(CC)COC(=O)[C@H](C)NP(=O)(OC[C@H]1O[C@@](C#N)(c2ccc3c(N)ncnn23)[C@H](O)[C@@H]1O)Oc1ccccc1 (stereo partly drawn) [Compound 9, (2S)-2-ethylbutyl 2-(((((2R,3S,4R,5R)-5-(4-aminopyrrolo[2,1-f][1,2,4]triazin-7-yl)-5-cyano-3,4-dihydroxytetrahydrofuran-2-yl)methoxy)(phenoxy)phosphoryl)amino) propanoate] | 290 nM |  |  | EC50 (Ebola virus (EBOV) [5]): 1030 nM; EC50 [6]: 60 nM; EC50 [1]: 270 nM; EC50 [4]: 90 nM; EC50 (Ebola virus (EBOV) [7]): 1 nM; EC50 [3]: 501 nM; EC50 [8]: 30 nM
13 | CCOC(=O)[C@H](Cc1ccccc1)NP(=O)(OC[C@H]1O[C@@](C#N)(c2ccc3c(N)ncnn23)[C@H](O)[C@@H]1O)Oc1ccccc1 (stereo partly drawn) [Compound 21, (2S)-ethyl 2-(((((2R,3S,4R,5R)-5-(4-aminopyrrolo[2,1-f][1,2,4]triazin-7-yl)-5-cyano-3,4-dihydroxytetrahydrofuran-2-yl)methoxy)(phenoxy)phosphoryl)amino)-3-phenylpropanoate] |  | 905 nM | 270 nM | EC50 [2]: 473 nM
14 | CC(C)OC(=O)[C@H](Cc1ccccc1)NP(=O)(OC[C@H]1O[C@@](C#N)(c2ccc3c(N)ncnn23)[C@H](O)[C@@H]1O)Oc1ccccc1 (stereo partly drawn) [Compound 25, (2S)-isopropyl 2-(((((2R,3S,4R,5R)-5-(4-aminopyrrolo[2,1-f][1,2,4]triazin-7-yl)-5-cyano-3,4-dihydroxytetrahydrofuran-2-yl)methoxy)(phenoxy)phosphoryl)amino)-3-phenylpropanoate] | 6720 nM |  |  | 
15 | CC(C)(C)C(=O)SCCOP(=O)(OCCSC(=O)C(C)(C)C)OC[C@H]1O[C@@](C#N)(c2ccc3c(N)ncnn23)[C@H](O)[C@@H]1O [Compound 15] | 520 nM | 630 nM | 501 nM | EC50 [4]: 271 nM
16 | N#C[C@@]1(c2ccc3c(N)ncnn23)O[C@H](CO)[C@@H](O)[C@H]1O [Compound 1, (2R, 3R, 4S, 5R)-2-(4-aminopyrrolo[1,2-f][1,2,4]triazin-7-yl)-3,4-dihydroxy-5-(hydroxymethyl)tetrahydrofuran-2-carbonitrile] | > 20000 nM | 771 nM | > 20000 nM | EC50 (NiV (Nipah virus) [9]): 1480 nM; EC50 (NiV (Nipah virus) [10]): 1000 nM; EC50 [6]: 13400 nM; EC50 [4]: 1490 nM; EC50 [11]: 1730 nM; EC50 [12]: 3130 nM; EC50 [8]: 3500 nM
17 | C[C@H](N[P@](=O)(OC[C@H]1O[C@@](C#N)(c2ccc3c(N)ncnn23)[C@H](O)[C@@H]1O)Oc1ccccc1)C(=O)OCC(C)(C)C [Compound 27, (S)-neopentyl 2-(((S)-(((2R,3S,4R,5R)-5-(4-aminopyrrolo[2,1-f][1,2,4]triazin-7-yl)-5-cyano-3,4-dihydroxytetrahydrofuran-2-yl)methoxy)(phenoxy)phosphoryl)amino) propanoate] | 182 nM | 82 nM |  | 
